Literature values in patent US20190256487A1, “HYDROXYN[…]” (BioPharmaWorks, LLC, priority 2016, published 2019).

What was measured:
[1] = mice
[2] = mice; remark: listed apart in the source

## N[C@@]1(c2ccccc2Cl)CCC[C@@H](O)C1=O [(2R,6R)-HNK, (2R,6R)-hydroxynorketamine]
[1]
  ketamine-related side effects: lacks ketamine-related side effects
[2]
  antidepressant actions: rapid and sustained antidepressant actions
